# Experimental data reported in patent US10039743B2, “Method of treating presbyopia using dithiol compounds and their derivatives” (Encore Health, LLC, priority 2009, dated 2018).
# Tests used:
# mouse lenses = experiment: Increase in elasticity: change in lens diameter (ΔD) under coverslip load in lens organ culture; type: cell-based; conditions: lipoic acid at concentrations ≥9.6 μM, 8-15 hours incubation, vs control; p<0.0001
# Protocol: The relative change in Young's modulus (E) can be calculated as the cubic value derived from the ΔD of the control divided by the ΔD of the experimental or E fractional change=(ΔD con/ΔDexp)^3. Pairs of mouse lenses were incubated in medium 200 supplemented with an antibiotic, an antimycotic, in the presence or absence of lipoic acid (concentrations ranging from 0.5 μM to 500 μM) for 8-15 hours. Each lens was removed from medium, weighed, and photographed on a micrometer scale. A coverslip of known weight (0.17899±0.00200 g) was placed on the lens, and the lens was photographed again on the micrometer scale. The diameter of each lens with and without the coverslip was determined from the photographs. The change in lens diameter produced by the force (coverslip) was computed ΔD=(Dwithcoverslip−Dwithoutcoverslip).
# [1] = test system: protein disulfides in the mouse lenses; experiment: Decrease in disulfide bonds: protein SH / SS groups in lens homogenates by differential fluorescent alkylation; type: cell-based
# Protocol: FIG. 5 depicts a scattergram of the percent of the total protein SH groups in disulfide bonds. Free SH groups were alkylated with 4-acctamido-4′-maleimidylstilbcne-2,2′-sulfonic acid (c, 1 μM, 5 μM, 9.6 μM, 50 μM, 96 μM) or 7-diethylamino-3-(4′maleimidylphenyl)-4-methyl coumarin (500 μM, and 500 μM c). Following removal of the first alkylating agent, the S—S bonds were reduced and alkylated with fluorescein-5-maleimide. Absorption spectra were used to calculated total protein (A280 nm), free protein SH (A322 or A384), and protein SS (A490) using the appropriate extinction coefficients. The symbol $ indicates statistically significant difference of mean with mean of control (c, p≤0.05).
# Mouse lenses were homogenized in a denaturing buffer containing a fluorescent alkylating agent to modify the free SH groups. After removing the alkylating agent homogenates were reduced and alkylated with a different fluorescent alkylating agent. Absorption spectra of the modified proteins were used to calculate free protein SH and protein SS groups.
# [2] = cited from earlier work
smiles,measurement,setting,value
"O=C(O)CCCCC1CCSS1 (stereo not shown) [lipoic acid, 5-(1,2-dithiolan-3-yl)pentanoic acid]","change in lens diameter produced by the force (coverslip), ΔD",mouse lenses,statistically significant increase
same,"percent of total protein SH groups in disulfide bonds, mean vs 500 μM control","[1]; 500 μM lipoic acid vs 500 μM control, p=0.027",significantly different
same,protein disulfides (percent of total protein SH groups in disulfide bonds),"[1]; lipoic acid at concentrations ≥9.6 μM, vs control, p≤0.05",statistically significant decrease
"N[C@@H](CSSC[C@H](N)C(=O)O)C(=O)O [cystine, 3,3′-disulanedylbis(2-aminopropanoic acid)]",limit of solubility in aqueous solution,[2],20 µM
